# Data reported in patent US20030162206A1, “Ceramide kinase and DNA encoding it” (SANKYO COMPANY, LIMITED, priority 2000, published 2003).
# Experiments:
# [1] = molecular target: T1, protein of the present invention having ceramide kinase activity (hCERK1) (Homo sapiens, UniProt Q8TCT0); experiment: Measurement of ceramide kinase activity, lysate of HEK293 cells transfected with pCR3.1-CERK1, [32P]-γ-ATP, TLC; type: biochemical; details: for Effect on ceramide kinase activity (activated / inhibited): C6-ceramide as substrate, examination of optimum assay conditions; for Phosphorylation by the protein of the present invention (in words): optimum assay conditions for ceramide kinase; for Ratio of activities (pCR3.1-CERK1/pCR3.1) / Phosphorylation activity, Transformed with pCR3.1-CERK 1: substance used as substrate; for Phosphorylation activity, Transformed with pCR3.1-CERK 1: HEK293 cell lysate, [32P]-γ-ATP, 37° C. 20 minutes, pH 7.0, natural ceramide micellized with octyl glucoside
# T1 construct: expressed in transfected cells; host or cells: HEK293 (ATCC CRL-1573), transient transfection with pCR3.1-CERK1; sonicated cell lysate
# T1 sequence (Q8TCT0 1-537): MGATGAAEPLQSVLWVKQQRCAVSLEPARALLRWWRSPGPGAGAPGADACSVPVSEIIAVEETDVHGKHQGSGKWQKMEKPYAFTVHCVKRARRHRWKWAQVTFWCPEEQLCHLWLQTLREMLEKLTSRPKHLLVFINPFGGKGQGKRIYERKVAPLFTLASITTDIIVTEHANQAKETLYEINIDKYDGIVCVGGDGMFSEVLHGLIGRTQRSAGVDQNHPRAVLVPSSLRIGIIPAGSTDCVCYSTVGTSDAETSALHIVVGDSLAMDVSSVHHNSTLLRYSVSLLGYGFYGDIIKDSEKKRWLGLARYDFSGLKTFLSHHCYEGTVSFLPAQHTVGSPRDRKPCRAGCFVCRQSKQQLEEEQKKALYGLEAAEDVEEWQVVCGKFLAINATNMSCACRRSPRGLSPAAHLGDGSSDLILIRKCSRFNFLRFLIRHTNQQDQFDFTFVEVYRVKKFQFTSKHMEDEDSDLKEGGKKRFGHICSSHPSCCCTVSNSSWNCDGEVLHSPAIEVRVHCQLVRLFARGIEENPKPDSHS
# Procedure: Specifically, the solution containing the protein, HEPES buffer solution (pH 7.0) containing magnesium chloride, EDTA, dithiothreitol, sodium vanadate, and protease inhibitor (for example, Complete (trademark), manufactured by Boehringer Manheim), C6 ceramide dissolved in a substrate (bovine serum albumin (hereinafter referred to as “BSA”)) solution having a concentration of 4 mg/ml or ceramide micellized by using octyl glucoside (a preparation purified from bovine fetal brain, manufactured by Sigma), and radio-labeled ^32P-ATP are mixed and incubated at 37° C. to perform a ceramide kinase reaction. Then, the reaction is stopped by adding 1N hydrochloric acid thereto and chloroform:methanol:concentrated hydrochloric acid (100:200: 1 v/v) is added thereto and extracted. The resultant lower layer (chloroform phase) is developed on thin layer chromatography (hereinafter referred to as “TLC”), and analyzed. The ceramide kinase activity can be determined by quantifying the spot in said TLC corresponded to ceramide-1-phosphate (hereinafter referred to as “Cer-1-P”) which is a product.
# (§1) That is, after putting 6×10^5 HEK293 cells per well into a polylysine-coated 6-well plate for tissue culture (manufactured by Iwaki Glass) and incubating at 37° C. for 24 hours, they were transfected with one μg of pCR3.1-CERK 1 by using a transfection reagent (Lipofectamin plus, manufactured by Life technology) according to the directions attached thereto. After the operation for the transfection was finished, cells were cultured at 37° C. for one day and the conditioned medium was removed. Then, the cells were collected by using buffer solution A (10% glycerol, 1 mM dithiothreitol, 1 mM EDTA, 1 mM sodium vanadate, protease inhibitor (Complete™, manufactured by Boeheringer Mannheim), a 200 mM Hepes buffer solution, pH 7.0). By ultrasonication with a probe-type sonicater (Cell Disrupter 200, manufactured by Branson), the collected cells were broken into pieces, and the resulting cell lysate was diluted and then used for measurement of enzyme activity as shown in Example 3.
# (§2) Specifically, 10 μl of 1 mM C6-ceramide prepared by using BSA solution (4 mg/ml) and 10 μl of a mixture of 100 mM magnesium chloride and 2 mM of radiolabeled [^32P]-gamma-ATP (manufactured by NEN) were added to 180 μl of buffer B [1 mM dithiothreitol, 1 mM EDTA, 1 mM sodium vanadate, protease inhibitor (Complete™, manufactured by Boeheringer Mannheim), 1 mM calcium chloride, a 200 mM HEPES buffer solution, pH 7.0] which further contains the protein of the present invention prepared in Example 2, and then incubated at 37° C. for 20 minutes to conduct the ceramide kinase reaction. Next, after stopping the reaction by adding 20 μl of 1 N hydrochloric acid, 800 μl (100:200:1, v/v) of chloroform:methanol:concentrated hydrochloric acid, 250 μl of 2.5 M potassium chloride, and 250 μl of chloroform were added thereto and extracted. The resulting extract was subjected to centrifugation at 2000×g, and the obtained lower layer (chloroform phase) was developed and analyzed on TLC.
# That is, a necessary amount of ceramide dissolved in chloroform was dried to be solid under a nitrogen air current, and the buffer solution B which contains 0.2% of octyl glucoside was added thereto, and then subjected to ultrasonication, and finally 100 μM ceramide solution was provided. 90 μl of the mixture of buffer solution B containing the enzyme solution and 10 μl of the mixture consisting of 100 mM magnesium chloride and 2 mM radio-labeled [^32P]-γ-ATP were added to 100 μl of said substrate solution, and then incubated at 37° C. for 20 minutes to perform the ceramide kinase reaction. Extraction of Cer-1-P was conducted by a similar procedure to the above-mentioned.
# [2] = test system: enzyme activity which HEK293 cell has endogenously; experiment: Phosphorylation activity of lysate of HEK293 cells transfected with only pCR3.1 vector (negative-reaction control); type: biochemical, human; details: substance used as substrate; lysate of HEK293 cells expressing only pCR3.1 vector
# Procedure: as §1, with “In order to examine whether the protein of the present invention has ceramide kinase activity, the human embryo kidney cell HEK293 (ATCC CRL-1573) was transfected with the expression vector pCR3.1-CERK1 obtained above. That is,” for “That is,”, “Example 3. […]” for “Example 3.”
# as §2, with “Next, after stopping the reaction by adding 20 μl of 1 N hydrochloric acid, 800 μl (100:200:1, v/v) of chloroform:methanol:concentrated hydrochloric acid, 250 μl of 2.5 M potassium chloride, and 250 μl of chloroform were added thereto and extracted.” left out, “TLC. […]” for “TLC.”
Molecule,Effect on ceramide kinase activity (activated / inhibited) [1],Phosphorylation by the protein of the present invention (in words) [1],Ratio of activities (pCR3.1-CERK1/pCR3.1) [1],"Phosphorylation activity, Transformed with pCR3.1-CERK 1 [1] [pmol/min/mg]","Phosphorylation activity, Transformed with pCR3.1 [2] [pmol/min/mg]",Km ([1]; substrate C6-ceramide) [µM]
C[C@H](CCC(=O)O)[C@H]1CC[C@H]2[C@@H]3[C@H](O)C[C@@H]4C[C@H](O)CC[C@]4(C)[C@H]3C[C@H](O)[C@]12C [cholic acid],inhibited,,,,,
[Cl-].[Cl-].[Mg+2] [magnesium chloride],activated,,,,,
[Ca+2].[Cl-].[Cl-] [calcium chloride],activated,,,,,
phosphatidylserine,inhibited,,,,,
diacylglycerol [DG],,hardly phosphorylated,1,150,130,
Triton X-100,inhibited,,,,,
"CCCCCCCCCCCCC/C=C/[C@@H](O)[C@H](CO)NC(=O)CCCCC [C6-ceramide, N-hexanoyl form of D-erythro-sphingosine]",,high efficiency,183,1280,7,7
CCCCCCCCCCCCC/C=C/[C@@H](O)[C@@H](N)CO [D-erythro-sphingosine],,hardly phosphorylated,1,50,50,
